The values that follow come from patent US20220235065A1 (Epizyme, Inc., priority 2016, published 2022).

Assay [1] deals with H3K9me2 in MDA-MB-231 cells. In words: MDA-MB-231 H3K9me2 in-cell western assay. Conditions: Homo sapiens, read-out: EHMT2 ICW (IC50 μM). In kind it is cell-based. The procedure, abridged: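 MDA-MB-231 cells (3,000/well) exposed to compound for two consecutive 48 h periods at 37 °C, then fixed and stained for H3K9me2, with DRAQ5 as DNA stain and infrared read at 700/800 nm. Percent inhibition was set between DMSO and UNC0638 control wells. IC50 came from triplicate dose–response fits with a four-parameter model, top 100%, bottom 0%.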

Assay [2] deals with T1, EHMT1 (Homo sapiens, UniProt Q9H9B1).
T1 sequence (Q9H9B1 1-1298): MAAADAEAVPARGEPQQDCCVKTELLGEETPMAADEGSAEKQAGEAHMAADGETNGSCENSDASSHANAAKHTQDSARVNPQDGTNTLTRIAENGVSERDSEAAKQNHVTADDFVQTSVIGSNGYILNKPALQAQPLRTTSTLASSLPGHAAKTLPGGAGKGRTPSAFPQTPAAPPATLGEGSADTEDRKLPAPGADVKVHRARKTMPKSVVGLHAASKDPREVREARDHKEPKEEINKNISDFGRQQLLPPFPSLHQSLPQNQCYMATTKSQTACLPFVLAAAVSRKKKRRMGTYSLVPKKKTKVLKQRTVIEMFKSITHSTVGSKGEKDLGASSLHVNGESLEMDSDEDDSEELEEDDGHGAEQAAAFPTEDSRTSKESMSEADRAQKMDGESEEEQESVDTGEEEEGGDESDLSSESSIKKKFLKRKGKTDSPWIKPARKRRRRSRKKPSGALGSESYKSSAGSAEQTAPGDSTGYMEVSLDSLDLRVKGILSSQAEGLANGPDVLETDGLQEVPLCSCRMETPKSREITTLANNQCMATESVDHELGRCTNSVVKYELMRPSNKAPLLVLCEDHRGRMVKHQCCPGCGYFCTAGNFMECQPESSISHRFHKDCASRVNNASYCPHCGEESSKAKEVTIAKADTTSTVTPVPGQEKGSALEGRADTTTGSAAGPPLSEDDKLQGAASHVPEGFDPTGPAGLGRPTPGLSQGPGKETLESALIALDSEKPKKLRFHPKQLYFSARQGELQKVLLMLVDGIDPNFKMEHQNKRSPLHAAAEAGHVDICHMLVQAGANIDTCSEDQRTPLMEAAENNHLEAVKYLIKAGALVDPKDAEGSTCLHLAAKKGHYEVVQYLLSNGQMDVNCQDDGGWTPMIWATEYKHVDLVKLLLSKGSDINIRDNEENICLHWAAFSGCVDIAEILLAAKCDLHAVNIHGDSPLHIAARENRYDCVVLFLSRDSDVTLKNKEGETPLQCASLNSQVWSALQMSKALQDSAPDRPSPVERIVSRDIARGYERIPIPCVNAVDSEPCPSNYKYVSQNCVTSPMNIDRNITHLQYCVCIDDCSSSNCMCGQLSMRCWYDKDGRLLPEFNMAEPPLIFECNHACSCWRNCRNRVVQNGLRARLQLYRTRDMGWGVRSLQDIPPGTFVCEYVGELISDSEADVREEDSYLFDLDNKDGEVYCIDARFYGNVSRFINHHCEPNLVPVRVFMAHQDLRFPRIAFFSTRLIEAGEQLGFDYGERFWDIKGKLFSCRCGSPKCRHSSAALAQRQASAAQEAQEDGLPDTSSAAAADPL
In words: EHMT1 PEP (EHMT1 peptide enzyme assay). In kind it is biochemical. Conditions: peptide substrate enzyme assay.

With `CNc1cc(C)nc(Nc2ccc(Cl)c(C(=O)Nc3cnccn3)c2)n1` [Compound 251], the IC50 in assay [1] was in the range of 1 to 10 µM; in assay [2], 0.1 to 1 µM.

With `CNc1cc(C)nc(Nc2ccc(Cl)c(-c3cc4[nH]ccc4cn3)c2)n1` [Compound 255], the IC50 in assay [1] is 0.1 to 1 µM; in assay [2] it was below 0.1 µM.

Turning to `CNc1cc(C)nc(Nc2ccc(C)c(-c3cc4[nH]ccc4cn3)c2)n1` [Compound 256], the IC50 was 0.1 to 1 µM in assay [1] and below 0.1 µM in assay [2].

`CNc1nc2cc(-c3cc4[nH]ccc4cn3)c(C)cc2n1C` [Compound 257]: the values for the IC50 in assay [1] and in assay [2] were 1 to 10 µM and 0.1 to 1 µM, respectively.

Turning to `CNc1cc(C)nc(Nc2ccc(Cl)c(C(=O)Nc3ncccn3)c2)n1` [Compound 258], the IC50 in assay [1] was in the range of 1 to 10 µM; in assay [2] it was 0.1 to 1 µM.

Turning to `CNc1cc(C)nc(Nc2ccc(Cl)c(C(=O)Nc3ccncn3)c2)n1` [Compound 259], the values for the IC50 in assay [1] and in assay [2] were above 10 µM and 1 to 10 µM, respectively.

Consider `CNc1cc(C)nc(Nc2ccc(Cl)c(-c3cc4c(cn3)CC(=O)N4)c2)n1` [Compound 260], for which the figures for the half-maximal inhibitory concentration (IC50) in assay [1] and in assay [2] were above 10 µM and 0.1 to 1 µM, respectively.

Consider `CNCc1cnn(-c2cc(Nc3nc(C)cc(NC)n3)ccc2Cl)c1` [Compound 262, N2-(4-chloro-3-(4-((methylamino)methyl)-1H-pyrazol-1-yl)phenyl)-N4,6-dimethylpyrimidine-2,4-diamine], for which the IC50 in assay [1] and in assay [2] was below 0.1 µM throughout.

For `CCc1ccc(Nc2nc(C)cc(NC)n2)cc1-c1cc2ccncc2[nH]1` [Compound 269], the concentration for half-maximal inhibition (IC50) in assay [1] is 0.1 to 1 µM; in assay [2] it was below 0.1 µM.

Regarding `CNc1cc(C)nc(Nc2ccc(C)c(-c3[nH]c4cnccc4c3C#N)c2)n1` [Compound 271], the IC50 in assay [1] is above 10 µM; in assay [2], 1 to 10 µM.

Consider `CNc1cc(C)nc(Nc2ccc(C)c(-c3cc4ccccc4[nH]3)c2)n1` [Compound 274], for which the values for the IC50 in assay [1] and in assay [2] were above 10 µM and 1 to 10 µM, respectively.

With `CCNc1c[nH]c(=O)c(-c2cc(Nc3nc(C)cc(NC)n3)ccc2C)c1` [Compound 276], the IC50 in assay [1] and in assay [2] was 1 to 10 µM throughout.

As to `CNc1nc2cc(-c3cc4ccncc4[nH]3)c(C)cc2n1C` [Compound 278], the concentration for half-maximal inhibition (IC50) was 0.1 to 1 µM in assay [1] and below 0.1 µM in assay [2].

In the case of `CNc1cc(C)nc(Nc2ccc(C)c(-c3nc4ccncc4[nH]3)c2)n1` [Compound 279], the IC50 in assay [1] is 1 to 10 µM; in assay [2], below 0.1 µM.

With `CNc1cc(C)nc(Nc2ccc(C)c(C(=O)Nc3cscn3)c2)n1` [Compound 280], the IC50 in assay [1] is above 10 µM; in assay [2] it was 1 to 10 µM.

With `CNc1cc(C)nc(Nc2ccc(C)c(-n3cc4cnccc4n3)c2)n1` [Compound 282], the IC50 in assay [1] and in assay [2] was below 0.1 µM throughout.

Regarding `CNCc1cnn(-c2cc(Nc3nc(C)cc(NC)n3)ccc2OC)c1` [Compound 285], the IC50 in assay [1] and in assay [2] was below 0.1 µM throughout.

For `CNCc1cnn(-c2cc(Nc3nc(C)cc(NC)n3)ccc2C)c1` [Compound 286, N4,6-dimethyl-N2-(4-methyl-3-(4-((methylamino)methyl)-1H-pyrazol-1-yl)phenyl)pyrimidine-2,4-diamine], the IC50 in assay [1] and in assay [2] was below 0.1 µM throughout.

In the case of `CNc1cc(C)nc(Nc2ccc(C)c(C(=O)Nc3cnccn3)c2)n1` [Compound 287], the values for the IC50 in assay [1] and in assay [2] were 1 to 10 µM and 0.1 to 1 µM, respectively.

As for `CNc1cc(C)nc(Nc2ccc(OC)c(-c3[nH]c4cnccc4c3C#N)c2)n1` [Compound 291], the 50% inhibitory concentration (IC50) in assay [1] and in assay [2] was 1 to 10 µM throughout.

Regarding `CNc1cc(C)nc(Nc2ccc(OC)c(-c3cc4[nH]ccc4c(C#N)n3)c2)n1` [Compound 292], the values for the IC50 in assay [1] and in assay [2] were 0.1 to 1 µM and below 0.1 µM, respectively.

For `CNc1cc(C)nc(Nc2ccc(OC)c(-c3cc4[nH]ccc4c(CNC(C)=O)n3)c2)n1` [Compound 293], the IC50 in assay [1] is 1 to 10 µM; in assay [2], below 0.1 µM.

With `CNC1=Nc2cc(-c3cnc4cc[nH]c4c3)c(OC)cc2C12CCC2` [Compound 294], the half-maximal inhibitory concentration (IC50) was 1 to 10 µM in assay [1] and below 0.1 µM in assay [2].

For `CNc1nc2cc(-c3cnc4cc[nH]c4c3)c(OC)cc2n1C` [Compound 295], the IC50 in assay [1] lay within 1 to 10 µM; in assay [2], 0.1 to 1 µM.

`CNc1cc(C)nc(Nc2ccc(OC)c(-c3cc4[nH]ccc4c(CN)n3)c2)n1` [Compound 296]: the IC50 in assay [1] was 1 to 10 µM; in assay [2], below 0.1 µM.

Regarding `CNc1cc(C)nc(Nc2ccc(C)c(C(=O)Nc3cn(C)nn3)c2)n1` [Compound 299], the IC50 is above 10 µM in assay [1] and 1 to 10 µM in assay [2].

On to `CNC1=Nc2cc(-c3cc4[nH]ccc4nc3C)c(OC)cc2C12CCC2` [Compound 300], for which the IC50 in assay [1] is 0.1 to 1 µM; in assay [2] it was below 0.1 µM.

`CNc1cc(C)nc(Nc2ccc(C)c(C(=O)Nc3cn(C)cn3)c2)n1` [Compound 302]: the IC50 in assay [1] and in assay [2] was above 10 µM throughout.

In the case of `CNc1nc2cc(-c3[nH]c4cnccc4c3C)c(OC)cc2n1C` [Compound 304], the half-inhibitory concentration (IC50) in assay [1] is above 10 µM; in assay [2], 0.1 to 1 µM.

Consider `COc1cc(NC2CCNC2)ccc1-c1[nH]c2cnccc2c1C` (stereo not drawn) [Compound 305], for which the results for the IC50 in assay [1] and in assay [2] were above 10 µM and 1 to 10 µM, respectively.

In the case of `CNc1cc(C)nc(Nc2ccc(OC)c(-c3nccc(NC)n3)c2)n1` [Compound 306], the IC50 was above 10 µM in assay [1] and 1 to 10 µM in assay [2].

With `CNCc1cnn(-c2c(F)ccc(Nc3nc(C)cc(NC)n3)c2F)c1` [Compound 307], the IC50 in assay [1] was 0.1 to 1 µM; in assay [2], below 0.1 µM.

Consider `CNC1=Nc2cc(-c3cc4[nH]ccc4c(C(N)=O)n3)c(OC)cc2C12CCC2` [Compound 308], for which the values for the IC50 in assay [1] and in assay [2] were above 10 µM and 0.1 to 1 µM, respectively.

As to `COc1cc2c(cc1-c1cc3[nH]ccc3cn1)N=C(NCC(N)=O)C21CCC1` [Compound 309], the half-maximal inhibitory concentration (IC50) in assay [1] was above 10 µM; in assay [2], 0.1 to 1 µM.

For `COc1cc(NC2CCNCC2)ccc1-c1[nH]c2cnccc2c1C` [Compound 310], the half-maximal inhibitory concentration (IC50) was above 10 µM in assay [1] and 1 to 10 µM in assay [2].

Take `CNc1cc(C)nc(Nc2cnc(C)c(-c3cc4ccncc4[nH]3)c2)n1` [Compound 311]: the IC50 in assay [1] and in assay [2] was above 10 µM each time.

As to `CNCc1ccnc(-c2cc(Nc3nc(C)cc(NC)n3)ccc2OC)c1` [Compound 313], the IC50 is 1 to 10 µM in assay [1] and 0.1 to 1 µM in assay [2].

Turning to `CNC1=Nc2cc(-n3cc(CN4CCC4)cn3)c(OC)cc2C12CCC2` [Compound 314], the IC50 in assay [1] is 0.1 to 1 µM; in assay [2] it was below 0.1 µM.

`CNc1cc(C)nc(Nc2ccc(F)c(-n3cc(CN4CCC4)cn3)c2F)n1` [Compound 315]: the IC50 in assay [1] was in the range of 1 to 10 µM; in assay [2], 0.1 to 1 µM.

In the case of `CNc1cc(C)nc(Nc2ccc(OC)c(-c3[nH]c4cnccc4c3CNC(C)=O)c2)n1` [Compound 316], the IC50 in assay [1] is 0.1 to 1 µM; in assay [2], below 0.1 µM.

On to `CNCc1cnn(-c2c(OC)ccc(Nc3nc(C)cc(NC)n3)c2F)c1` [Compound 317, N2-(2-fluoro-4-methoxy-3-(4-((methylamino)methyl)-1H-pyrazol-1-yl)phenyl)-N4,6-dimethylpyrimidine-2,4-diamine], for which the IC50 in assay [1] and in assay [2] was below 0.1 µM each time.

Turning to `CNCc1cnn(-c2c(F)ccc(Nc3nc(C)cc(NC)n3)c2OC)c1` [Compound 318], the IC50 in assay [1] and in assay [2] was 0.1 to 1 µM throughout.

Turning to `CNCc1cnn(-c2cc(Nc3nc(C)cc(NC)n3)ccc2Br)c1` [Compound 319], the IC50 in assay [1] and in assay [2] was below 0.1 µM each time.

On to `CCc1ccc(Nc2nc(C)cc(NC)n2)cc1-n1cc(CNC)cn1` [Compound 320], for which the IC50 is 0.1 to 1 µM in assay [1] and below 0.1 µM in assay [2].

With `CNc1cc(C)nc(Nc2ccc(OC)c(-n3cc(C4CCCN4)cn3)c2)n1` (stereo not drawn) [Compound 321], the IC50 in assay [1] and in assay [2] was below 0.1 µM in each case.

Broadly, the IC50 is the concentration at which inhibition is half-maximal.
